This is an account of results in patent US20230265151A1, “GIP/GLP1 CO-AGONIST COMPOUNDS” (priority 2020, published 2023).

Each structure is given as a SMILES string. Like-named read-outs stand apart in the source and are kept apart here.

Type in all cases: cell-based
One assay concerns the target T1, hGIPR (Homo sapiens, UniProt P48546).
T1 construct: expressed in transfected cells
T1 sequence (P48546 22-466): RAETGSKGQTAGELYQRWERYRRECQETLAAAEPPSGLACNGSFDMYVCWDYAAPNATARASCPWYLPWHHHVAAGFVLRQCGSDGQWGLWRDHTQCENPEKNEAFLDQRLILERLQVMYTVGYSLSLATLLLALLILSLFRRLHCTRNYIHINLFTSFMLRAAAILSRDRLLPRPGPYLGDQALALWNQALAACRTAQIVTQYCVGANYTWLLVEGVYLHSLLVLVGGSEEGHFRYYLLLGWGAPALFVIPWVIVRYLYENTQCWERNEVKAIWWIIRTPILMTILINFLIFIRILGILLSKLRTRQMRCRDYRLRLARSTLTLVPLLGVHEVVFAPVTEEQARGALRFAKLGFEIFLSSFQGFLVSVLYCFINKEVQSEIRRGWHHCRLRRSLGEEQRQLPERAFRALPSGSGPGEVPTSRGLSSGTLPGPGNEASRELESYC
As to the kind of experiment: Functional cAMP formation (HTRF) in HEK-293 clonal cells expressing hGIPR, 0.1% bovine casein, without or with 1.0% human serum albumin. Conditions: for Emax: percent of maximal response to GIP(1-42)NH2; for EC50: cAMP, 0.1% bovine casein (no human serum albumin), geometric mean. The method, boiled down:
(§1)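 Readings of the HTRF 665/620 nm ratio, which falls as cAMP rises, were converted to nM cAMP using a standard curve after 30 min peptide exposure at 37° C.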
(cAMP levels reflect the balance of adenylyl cyclase and phosphodiesterase activity.)

The target of another assay is T2, hGCGR (Homo sapiens, UniProt P47871).
T2 construct: expressed in transfected cells
T2 sequence (P47871 26-477): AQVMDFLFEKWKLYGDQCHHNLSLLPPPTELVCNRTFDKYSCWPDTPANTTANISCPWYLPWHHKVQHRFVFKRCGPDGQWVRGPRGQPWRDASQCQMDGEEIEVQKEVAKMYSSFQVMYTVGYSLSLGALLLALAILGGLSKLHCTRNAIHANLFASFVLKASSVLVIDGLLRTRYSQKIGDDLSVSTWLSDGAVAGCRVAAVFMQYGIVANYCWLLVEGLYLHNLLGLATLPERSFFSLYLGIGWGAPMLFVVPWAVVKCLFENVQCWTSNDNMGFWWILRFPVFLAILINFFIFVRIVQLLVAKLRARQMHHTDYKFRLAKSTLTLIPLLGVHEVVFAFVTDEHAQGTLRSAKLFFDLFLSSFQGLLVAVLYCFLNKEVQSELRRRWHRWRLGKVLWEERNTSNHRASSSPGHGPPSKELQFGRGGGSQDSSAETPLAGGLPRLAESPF
As to the kind of experiment: Functional cAMP formation (HTRF) in HEK-293 clonal cells expressing hGCGR, 0.1% bovine casein, without or with 1.0% human serum albumin. Conditions: 37° C. The method in brief:
as §1

Another assay addresses hGLP-1R (Homo sapiens, UniProt P43220). As to the kind of experiment: Functional cAMP formation (HTRF) in HEK-293 clonal cells expressing hGLP-1R, 0.1% bovine casein, without or with 1.0% human serum albumin. The arrangement: expressed in transfected cells. Conditions: for Emax: percent of maximal response to GLP-1(7-36)NH2; for EC50: cAMP, 0.1% bovine casein (no human serum albumin), geometric mean. The method, boiled down:
as §1

Setting [1] is: HEK293, 0.1% bovine casein and 1.0% human serum albumin, 37° C., read-out: hGIPR Emax, % ± SEM.
[2] abbreviates: HEK293, cAMP, 37° C., 0.1% bovine casein, arithmetic mean, read-out: hGIPR Emax, % ± SEM.
Where [3] appears, read: 0.1% bovine casein and 1.0% human serum albumin, geometric mean, read-out: hGCGR EC50, nM (SEM, n).
The mark [4] stands for this setting: cAMP, 0.1% bovine casein (no human serum albumin), geometric mean, read-out: hGCGR EC50, nM (SEM, n).
[5] abbreviates: HEK293, 0.1% bovine casein and 1.0% human serum albumin, 37° C., read-out: hGLP-1R Emax, % ± SEM.
Where [6] appears, read: HEK293, cAMP, 37° C., 0.1% bovine casein, arithmetic mean, read-out: hGLP-1R Emax, % ± SEM.
[7] abbreviates: 37° C., read-out: hGLP-1R EC50, nM (SEM, n).

Chain of hGLP-1R (P43220 24-463): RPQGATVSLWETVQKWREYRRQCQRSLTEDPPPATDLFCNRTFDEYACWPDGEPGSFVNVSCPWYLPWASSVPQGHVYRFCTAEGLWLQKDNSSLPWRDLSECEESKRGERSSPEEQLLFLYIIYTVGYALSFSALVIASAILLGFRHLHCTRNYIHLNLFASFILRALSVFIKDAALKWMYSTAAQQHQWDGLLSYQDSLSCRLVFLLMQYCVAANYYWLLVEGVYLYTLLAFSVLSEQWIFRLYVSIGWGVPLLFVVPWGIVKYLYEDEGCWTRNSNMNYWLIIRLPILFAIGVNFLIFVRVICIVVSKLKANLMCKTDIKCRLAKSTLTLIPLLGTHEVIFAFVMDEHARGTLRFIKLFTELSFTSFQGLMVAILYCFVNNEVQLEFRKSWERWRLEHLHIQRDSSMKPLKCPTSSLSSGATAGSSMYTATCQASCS

A word on the Emax: it is the greatest response seen or fitted, relative to the assay's reference. Usually EC50 stands for the concentration at which the effect is half-maximal. Turning to `CC[C@H](C)[C@H](NC(=O)[C@H](CCCN)NC(=O)[C@H](CC(=O)O)NC(=O)[C@H](CC(C)C)NC(=O)[C@](C)(CC(C)C)NC(=O)[C@@H](NC(=O)[C@H](CO)NC(=O)[C@H](Cc1ccc2ccccc2c1)NC(=O)[C@H](CC(=O)O)NC(=O)[C@H](CO)NC(=O)[C@@H](NC(=O)[C@](C)(Cc1ccccc1F)NC(=O)[C@@H](NC(=O)CNC(=O)[C@H](CCC(=O)O)NC(=O)C(C)(C)NC(=O)[C@@H](N)Cc1ccc(O)cc1)[C@@H](C)O)[C@@H](C)O)[C@@H](C)CC)C(=O)N[C@@H](C)C(=O)N[C@@H](CCC(N)=O)C(=O)NC(C)(C)C(=O)N[C@@H](CCC(=O)O)C(=O)N[C@@H](Cc1ccccc1)C(=O)N[C@H](C(=O)N[C@@H](CCCCNC(=O)COCCOCCNC(=O)COCCOCCNC(=O)CC[C@H](NC(=O)CCCCCCCCCCCCC(=O)O)C(=O)O)C(=O)N[C@@](C)(Cc1ccc(O)cc1)C(=O)N[C@@H](CC(C)C)C(=O)N[C@H](C(=O)N[C@@H](CCCCNC(=O)COCCOCCNC(=O)COCCOCCNC(=O)CC[C@H](NC(=O)CCCCCCCCCCCCC(=O)O)C(=O)O)C(=O)NCC(=O)NCC(=O)N1CCC[C@H]1C(=O)N[C@@H](CO)C(=O)N[C@@H](CO)C(=O)NCC(=O)N[C@@H](C)C(=O)N1CCC[C@H]1C(=O)N1CCC[C@H]1C(=O)N1CCC[C@H]1C(=O)N[C@@H](CO)C(N)=O)[C@@H](C)CC)[C@@H](C)CC` [Example 252], the Emax on hGIPR (setting [1]) is 87.2%; on hGIPR (setting [2]), 109%; at hGLP-1R (setting [5]) it was 115%; at hGLP-1R (setting [6]) it was 115%. The figures for the half-maximal effective concentration (EC50) at hGCGR (setting [3]), at hGCGR (setting [4]) and at hGLP-1R (setting [7]) were over 9950 nM, over 9950 nM and 0.555 nM, respectively.
In the case of `CC[C@H](C)[C@H](NC(=O)[C@H](CCCN)NC(=O)[C@H](CC(=O)O)NC(=O)[C@H](CC(C)C)NC(=O)[C@](C)(CC(C)C)NC(=O)[C@@H](NC(=O)[C@H](CO)NC(=O)[C@H](Cc1ccc2ccccc2c1)NC(=O)[C@H](CC(=O)O)NC(=O)[C@H](CO)NC(=O)[C@@H](NC(=O)[C@](C)(Cc1ccccc1F)NC(=O)[C@@H](NC(=O)CNC(=O)[C@H](CCC(=O)O)NC(=O)C(C)(C)NC(=O)[C@@H](N)Cc1ccc(O)cc1)[C@@H](C)O)[C@@H](C)O)[C@@H](C)CC)C(=O)N[C@@H](C)C(=O)N[C@@H](CCC(N)=O)C(=O)NC(C)(C)C(=O)N[C@@H](CCCCNC(=O)COCCOCCNC(=O)COCCOCCNC(=O)CC[C@H](NC(=O)CCCCCCCCCCCCC(=O)O)C(=O)O)C(=O)N[C@@H](Cc1ccccc1)C(=O)N[C@H](C(=O)N[C@H](CCC(=O)O)C(=O)N[C@@](C)(Cc1ccc(O)cc1)C(=O)N[C@@H](CC(C)C)C(=O)N[C@H](C(=O)N[C@@H](CCC(=O)O)C(=O)NCC(=O)NCC(=O)N1CCC[C@H]1C(=O)N[C@@H](CO)C(=O)N[C@@H](CO)C(=O)NCC(=O)N[C@@H](C)C(=O)N1CCC[C@H]1C(=O)N1CCC[C@H]1C(=O)N1CCC[C@H]1C(=O)N[C@@H](CO)C(=O)N[C@@H](CCCCNC(=O)COCCOCCNC(=O)COCCOCCNC(=O)CC[C@H](NC(=O)CCCCCCCCCCCCC(=O)O)C(=O)O)C(N)=O)[C@@H](C)CC)[C@@H](C)CC` [Example 254], the Emax on hGIPR (setting [1]) turned out to be 68.5%; at hGIPR (setting [2]), 98.2%; on hGLP-1R (setting [5]) it was 122%. Besides, the EC50 on hGCGR (setting [3]) and at hGCGR (setting [4]) was over 9950 nM throughout.
Turning to `CC[C@H](C)[C@H](NC(=O)[C@H](CC(C)C)NC(=O)[C@](C)(Cc1ccc(O)cc1)NC(=O)[C@H](CCCCNC(=O)COCCOCCNC(=O)COCCOCCNC(=O)CC[C@H](NC(=O)CCCCCCCCCCCCCCC(=O)O)C(=O)O)NC(=O)[C@@H](NC(=O)[C@H](Cc1ccccc1)NC(=O)[C@H](CCCN)NC(=O)C(C)(C)NC(=O)[C@H](CCC(N)=O)NC(=O)[C@H](C)NC(=O)[C@H](CCC(N)=O)NC(=O)[C@H](CCCN)NC(=O)[C@H](CC(=O)O)NC(=O)[C@H](CC(C)C)NC(=O)[C@](C)(CC(C)C)NC(=O)[C@@H](NC(=O)C(C)(C)NC(=O)[C@H](Cc1ccncc1)NC(=O)[C@H](CC(=O)O)NC(=O)[C@H](CO)NC(=O)[C@@H](NC(=O)[C@](C)(Cc1ccccc1F)NC(=O)[C@@H](NC(=O)CNC(=O)[C@H](CCC(=O)O)NC(=O)C(C)(C)NC(=O)[C@@H](N)Cc1ccc(O)cc1)[C@@H](C)O)[C@@H](C)O)[C@@H](C)CC)[C@@H](C)CC)C(=O)N[C@@H](CCCCNC(=O)COCCOCCNC(=O)COCCOCCNC(=O)CC[C@H](NC(=O)CCCCCCCCCCCCCCC(=O)O)C(=O)O)C(=O)NCC(=O)NCC(=O)N1CCC[C@H]1C(=O)N[C@@H](CO)C(=O)N[C@@H](CO)C(=O)NCC(=O)N[C@@H](C)C(=O)N1CCC[C@H]1C(=O)N1CCC[C@H]1C(=O)N1CCC[C@H]1C(=O)N[C@@H](CO)C(N)=O` [Example 443], the maximal effect (Emax) on hGIPR (HEK293, cAMP, 37° C., 0.1% bovine casein and 1.0% human serum albumin, read-out: hGIPR Emax, % ± SEM) stood at 91.1%; at hGLP-1R (setting [6]), 114%. Further, the 50% effective concentration (EC50) on hGIPR (37° C., read-out: hGIPR EC50, nM (SEM, n)) is 0.0178 nM; on hGCGR (setting [4]), over 9950 nM; on hGCGR (cAMP, 0.1% bovine casein and 1.0% human serum albumin, geometric mean (SEM, n), read-out: hGCGR EC50, nM (SEM, n)), over 9950 nM; at hGLP-1R (setting [7]), 0.294 nM.
Take `CC[C@H](C)[C@H](NC(=O)[C@H](CC(C)C)NC(=O)[C@](C)(Cc1ccc(O)cc1)NC(=O)[C@@H](CCC(=O)O)NC(=O)[C@@H](NC(=O)[C@H](Cc1ccccc1)NC(=O)[C@H](CCC(=O)O)NC(=O)C(C)(C)NC(=O)[C@H](CCC(N)=O)NC(=O)[C@H](C)NC(=O)[C@H](CCCCNC(=O)COCCOCCNC(=O)CC[C@H](NC(=O)CCCCCCCCCOc1ccc(C(=O)O)cc1)C(=O)O)NC(=O)[C@H](CCCN)NC(=O)[C@H](CC(=O)O)NC(=O)[C@H](CC(C)C)NC(=O)[C@](C)(CC(C)C)NC(=O)[C@@H](NC(=O)C(C)(C)NC(=O)[C@H](Cc1ccc(O)cc1)NC(=O)[C@H](CC(=O)O)NC(=O)[C@H](CO)NC(=O)[C@@H](NC(=O)[C@](C)(Cc1ccccc1F)NC(=O)[C@@H](NC(=O)CNC(=O)[C@H](CCC(=O)O)NC(=O)C(C)(C)NC(=O)[C@@H](N)Cc1ccc(O)cc1)[C@@H](C)O)[C@@H](C)O)[C@@H](C)CC)[C@@H](C)CC)C(=O)N[C@@H](CCCCNC(=O)COCCOCCNC(=O)CC[C@H](NC(=O)CCCCCCCCCOc1ccc(C(=O)O)cc1)C(=O)O)C(=O)NCC(=O)NCC(=O)N1CCC[C@H]1C(=O)N[C@@H](CO)C(=O)N[C@@H](CO)C(=O)NCC(=O)N[C@@H](C)C(=O)N1CCC[C@H]1C(=O)N1CCC[C@H]1C(=O)N1CCC[C@H]1C(=O)N[C@@H](CO)C(N)=O` [Example 373]: the Emax on hGIPR (HEK293, read-out: hGIPR Emax, % ± SEM, cAMP, 37° C., 0.1% bovine casein and 1.0% human serum albumin) is 82.4%; at hGLP-1R (HEK293, read-out: hGLP-1R Emax, % ± SEM, cAMP, 37° C., 0.1% bovine casein and 1.0% human serum albumin) it was 112%. Besides, the EC50 at hGIPR (hGIPR EC50, nM (SEM, n), 37° C.) is 0.0152 nM; on hGCGR (hGCGR EC50, nM (SEM, n), cAMP, 0.1% bovine casein (no human serum albumin), geometric mean), over 9950 nM; on hGCGR (hGCGR EC50, nM (SEM, n), cAMP, 0.1% bovine casein and 1.0% human serum albumin, geometric mean (SEM, n)) it was over 9950 nM; on hGLP-1R (hGLP-1R EC50, nM (SEM, n), 37° C.), 0.329 nM.
